In ChEMBL document CHEMBL5620375, “Tetrahydrobenzo[h]quinoline derivatives as a novel chemotype for dual antileishmanial-antimalarial activity graced with antitubercular activity: Design, synthesis and biological evaluation” (Eur J Med Chem, 2023):
Converted amounts (≈) assume the structure as drawn.

Each compound was assayed on Mycobacterium tuberculosis (assay: Antitubercular activity against multidrug-resistant Mycobacterium tuberculosis ATCC 35822 assessed as inhibition of bacterial growth by microplate alamar blue assay).
Type: functional

Structure (SMILES)	MIC
COc1ccc(OC)c(-c2c3c([nH]c(=O)c2C#N)-c2ccccc2CC3)c1	21.8 µM (≈ 7.82 µg/mL)
N#Cc1c(-c2ccc(Cl)cc2Cl)c2c([nH]c1=O)-c1ccccc1CC2	85.4 µM (≈ 31.4 µg/mL)
COc1ccc(-c2c3c([nH]c(=O)c2C#N)-c2ccccc2CC3)cc1O	45.4 µM (≈ 15.6 µg/mL)
COc1ccccc1-c1c2c([nH]c(=O)c1C#N)-c1ccccc1CC2	11.9 µM (≈ 3.9 µg/mL)
N#Cc1c(O)nc2c(c1-c1cccc([N+](=O)[O-])c1)CCc1ccccc1-2	22.8 µM (≈ 7.82 µg/mL)
